Laboratory results reported in publication PMC11653251 (2024).

Legend:
[1] = system: (AT)6 (DNA, duplex) ATATATATATAT; test: UV-vis absorption titration, Bard fit; conditions: K+ (50 mM potassium phosphate), complex 10 μM, average of two titrations, [DNA] per nucleobase (stated for st-DNA)
[2] = system: (GC)6 (DNA, duplex) GCGCGCGCGCGC; test: UV-vis absorption titration, Bard fit; conditions: K+ (50 mM potassium phosphate), complex 10 μM, average of two titrations, [DNA] per nucleobase (stated for st-DNA)

Row | Compound | Kb [1] | Kb [2]
1 | Cc1cnc2c(ccc3c(C)c(C)cnc32)c1C.Cc1cnc2c(ccc3c(C)c(C)cnc32)c1C.[Cr+3].c1ccc2cc3nc4c5cccnc5c5ncccc5c4nc3cc2c1 [Λ-1] | 11.8 ± 0.35 × 10^6 M^-1 | 2.39 ± 0.32 × 10^6 M^-1
2 | Cc1cnc2c(ccc3c(C)c(C)cnc32)c1C.Cc1cnc2c(ccc3c(C)c(C)cnc32)c1C.[Cr+3].c1ccc2cc3nc4c5cccnc5c5ncccc5c4nc3cc2c1 [Δ-1] | 1.13 ± 0.24 × 10^6 M^-1 | 1.17 ± 0.53 × 10^6 M^-1
